Measured values from US4521340A, “Pharmaceutically acceptable salts of the antibiotic C-19393 E5” (priority 1980, dated 1985).
“Also recorded” adds a separate entry of the source. Counter-ions that a name gives are not always drawn. Like-named read-outs stand apart in the source and are kept apart here.

Legend:
[1] = system: K-101 strain; experiment: Growth on minimal medium containing compound (Table 4); type: cell-based, Streptomyces griseus subsp. cryophilus; conditions: 28° C., 4 days
Experimental: (§1) The 20 plates were selected from among those cultivated with about 20-100 colonies per plate. These colonies were inoculated by the replicate method onto a minimal medium (composition: 10 g of glycerol, 1 g of L-asparagine,1 g of dipotassium phosphate, 0.2 g of magnesium sulfate, 20 g of agar and distilled water; pH 7.1) and a screening medium A (the minimal medium supplemented with 50 mg/l of L-cysteine) and each of the media was incubated at 28° C. for 3 days. Another 20 plates were selected from among those cultivated with about 20-100 colonies per plate. These colonies were replicated on a minimal medium (the same as said composition) and a screening medium B (the minimal medium supplemented with 50 mg/l of sodium thiosulfate) and each of the media was incubated at 28° C. for 3 days. The strains thus obtained were incubated on minimal media containing sodium thiosulfate, L-cysteine or L-methionine in various concentrations at 28° C. for 4 days.

[2] = system: K-4 strain; experiment: as above; type: cell-based, Streptomyces griseus subsp. cryophilus; conditions: 28° C., 4 days
Experimental: as §1

[3] = system: C-19393 strain; experiment: as above; type: cell-based, Streptomyces griseus subsp. cryophilus; design: key to the marks not given beside the values; conditions: 28° C., 4 days
Experimental: as §1

[4] = system: C-19393 strain; experiment: Growth on minimal medium containing compound (Table 5); type: cell-based, Streptomyces griseus subsp. cryophilus; conditions: 28° C., 4 days
Experimental: (§2) SR-135 and C-19393 strains were incubated on a minimal medium containing sodium thiosulfate, L-cysteine or L-methionine at 28° C. for 4 days.

[5] = system: SR-135 strain; experiment: as above; type: cell-based, Streptomyces griseus subsp. cryophilus; conditions: 28° C., 4 days
Experimental: as §2

[6] = system: Alcaligenes faecalis IFO 13111; experiment: Antimicrobial spectrum, MIC (Bouillon agar); type: cell-based; conditions: IFO13111, read-out: Minimum Inhibitory Concentration
Text: (§3) The biological properties of C-19393 E5 are as follows.

[7] = system: Bacillus subtilis PCI 219; experiment: Antimicrobial spectrum, MIC (Bouillon agar); type: cell-based; conditions: PCI219, read-out: Minimum Inhibitory Concentration
Text: as §3

[8] = system: Comamonas terrigena IFO 13299; experiment: Antimicrobial spectrum, MIC (Bouillon agar); type: cell-based; conditions: IFO13299, read-out: Minimum Inhibitory Concentration
Text: as §3

[9] = system: Escherichia coli NIHJ; experiment: Antimicrobial spectrum, MIC (Bouillon agar); type: cell-based; conditions: read-out: Minimum Inhibitory Concentration
Text: as §3

[10] = system: Klebsiella pneumoniae IFO 3317; experiment: Antimicrobial spectrum, MIC (Bouillon agar); type: cell-based; conditions: IFO3317, read-out: Minimum Inhibitory Concentration
Text: as §3

[11] = system: Proteus mirabilis ATCC 21100; experiment: Antimicrobial spectrum, MIC (Bouillon agar); type: cell-based; conditions: ATCC21100, read-out: Minimum Inhibitory Concentration
Text: as §3

[12] = system: Proteus vulgaris IFO 3988; experiment: Antimicrobial spectrum, MIC (Bouillon agar); type: cell-based; conditions: IFO3988, read-out: Minimum Inhibitory Concentration
Text: as §3

[13] = system: Pseudomonas aeruginosa IFO 3080; experiment: Antimicrobial spectrum, MIC (Bouillon agar); type: cell-based; conditions: IFO3080, read-out: Minimum Inhibitory Concentration
Text: as §3

[14] = system: Salmonella typhimurium IFO 12529; experiment: Antimicrobial spectrum, MIC (Bouillon agar); type: cell-based; conditions: Salmonella enterica, read-out: Minimum Inhibitory Concentration
Text: as §3

[15] = system: Sarcina lutea IFO 3232; experiment: Antimicrobial spectrum, MIC (Bouillon agar); type: cell-based; conditions: Micrococcus luteus, IFO3232, read-out: Minimum Inhibitory Concentration
Text: as §3

[16] = system: Serratia marcescens IFO 12648; experiment: Antimicrobial spectrum, MIC (Bouillon agar); type: cell-based; conditions: IFO12648, read-out: Minimum Inhibitory Concentration
Text: as §3

[17] = system: Staphylococcus aureus 209P; experiment: Antimicrobial spectrum, MIC (Bouillon agar); type: cell-based; conditions: read-out: Minimum Inhibitory Concentration
Text: as §3

[18] = Solubility; type: physicochemical
[19] = Stability of aqueous solution; type: physicochemical; conditions: neutral pH region
[20] = system: gram-positive and gram-negative bacteria; experiment: Antibacterial activity (summary in words); type: cell-based
Text: as §3

[21] = system: C-19393 strain; conditions: 28° C., 7 days
[22] = system: SR-135 strain; conditions: 28° C., 7 days
[23] = system: C-19393 strain; experiment: microbe, parasite or virus in culture; conditions: Streptomyces griseus, 168 h, read-out: Concentration at which growth was inhibited

In the case of `O=S([O-])([O-])=S.[Na+].[Na+]` [Sodium thiosulfate, sodium thiosulfate], the Growth ([1]; 3.125 mg/l) is reported as “±”, the Growth ([1]; 6.25 mg/l) is reported as “±” and the Growth ([1]; 12.5 mg/l) is reported as “±”. The Growth ([1]; 25 mg/l) was “+”, the Growth ([1]; 50 mg/l) was “++” and the Growth ([1]; 100 mg/l) was “+++”. For the same compound, the Growth ([2]; 3.125 mg/ml (so in the source)) was “+”, the Growth ([2]; 6.25 mg/ml (so in the source)) was “+” and the Growth ([2]; 12.5 mg/ml (so in the source)) was “++”. For the same compound, the Growth ([2]; 25 mg/ml (so in the source)) was “+++”, the Growth ([2]; 50 mg/ml (so in the source)) was “+++” and the Growth ([2]; 100 mg/ml (so in the source)) was “+++”. For the same compound, the Growth ([3]; 3.125 mg/ml (so in the source)) was “+++”, the Growth ([3]; 6.25 mg/ml (so in the source)) was “+++” and the Growth ([3]; 12.5 mg/ml (so in the source)) was “+++”. The Growth ([3]; 25 mg/ml (so in the source)) was “+++”, the Growth ([3]; 50 mg/ml (so in the source)) was “+++” and the Growth ([3]; 100 mg/ml (so in the source)) was “+++”. The Growth ([4]; 3.125 mg/l) was “+++”, the Growth ([4]; 6.25 mg/l) was “+++” and the Growth ([4]; 12.5 mg/l) was “+++”. The Growth ([4]; 25 mg/l) was “+++”, the Growth ([4]; 50 mg/l) was “+++” and the Growth ([4]; 100 mg/l) was “+++”. For the same compound, the Growth ([5]; 3.125 mg/l) was “+”, the Growth ([5]; 6.25 mg/l) was “++” and the Growth ([5]; 12.5 mg/l) was “++”. The Growth ([5]; 25 mg/l) was “+++”, the Growth ([5]; 50 mg/l) was “+++” and the Growth ([5]; 100 mg/l) was “+++”.
Compound `CC(=O)N/C=C/[S+]([O-])C1=C(C(=O)O)N2C(=O)[C@@H]([C@H](C)O)[C@H]2C1` (stereo partly drawn) [C-19393 E5 sodium salt] has an MIC [6] of 1.56 µg/mL, an MIC [7] of 0.78 µg/mL and an MIC [8] of 0.78 µg/mL. It also gave an MIC [9] of 0.78 µg/mL, an MIC [10] of 6.25 µg/mL and an MIC [11] of 3.13 µg/mL. For the same compound, the MIC [12] was 1.56 µg/mL, the MIC [13] was 6.25 µg/mL and the MIC [14] was 0.78 µg/mL. For the same compound, the MIC [15] was 0.2 µg/mL, the MIC [16] was 6.25 µg/mL and the MIC [17] was 0.78 µg/mL. For the same compound, the Solubility ([18]; in acetone) was “insoluble”, the Solubility ([18]; in benzene) was “insoluble” and the Solubility ([18]; in ethyl acetate) was “insoluble”. The Solubility ([18]; in water) was “Readily soluble”.
In the case of `CC(=O)N/C=C/[S+]([O-])C1=C(C(=O)O)N2C(=O)[C@@H]([C@H](C)O)[C@H]2C1` (stereo partly drawn) [C-19393 E5], the “Stability of aqueous solution” value [19] is reported as “stable in the neutral pH region” and the Antibacterial/antimicrobial activity [20] is reported as “highly active against both gram-positive and gram-negative bacteria; also recorded: strong antimicrobial activity against gram-positive and gram-negative bacteria”.
With `CSCC[C@H](N)C(=O)O` [L-Methionine, L-methionine] the Growth ([1]; 3.125 mg/l) was “+”, the Growth ([1]; 6.25 mg/l) was “++” and the Growth ([1]; 12.5 mg/l) was “+++”. For the same compound, the Growth ([1]; 25 mg/l) was “+++”, the Growth ([1]; 50 mg/l) was “+++” and the Growth ([1]; 100 mg/l) was “+++”. The Growth ([2]; 3.125 mg/ml (so in the source)) was “+”, the Growth ([2]; 6.25 mg/ml (so in the source)) was “++” and the Growth ([2]; 12.5 mg/ml (so in the source)) was “++”. The Growth ([2]; 25 mg/ml (so in the source)) was “+++”, the Growth ([2]; 50 mg/ml (so in the source)) was “+++” and the Growth ([2]; 100 mg/ml (so in the source)) was “+++”. The Growth ([3]; 3.125 mg/ml (so in the source)) was “+++”, the Growth ([3]; 6.25 mg/ml (so in the source)) was “+++” and the Growth ([3]; 12.5 mg/ml (so in the source)) was “+++”. The Growth ([3]; 25 mg/ml (so in the source)) was “+++”, the Growth ([3]; 50 mg/ml (so in the source)) was “+++” and the Growth ([3]; 100 mg/ml (so in the source)) was “+++”. For the same compound, the Growth ([4]; 3.125 mg/l) was “+++”, the Growth ([4]; 6.25 mg/l) was “+++” and the Growth ([4]; 12.5 mg/l) was “+++”. For the same compound, the Growth ([4]; 25 mg/l) was “+++”, the Growth ([4]; 50 mg/l) was “++ +” and the Growth ([4]; 100 mg/l) was “+++”. For the same compound, the Growth ([5]; 3.125 mg/l) was “++”, the Growth ([5]; 6.25 mg/l) was “+++” and the Growth ([5]; 12.5 mg/l) was “+++”. For the same compound, the Growth ([5]; 25 mg/l) was “+++”, the Growth ([5]; 50 mg/l) was “+++” and the Growth ([5]; 100 mg/l) was “+++”.
With `N[C@@H](CS)C(=O)O` [L-Cysteine, L-cysteine] the Growth ([1]; 3.125 mg/l) was “+”, the Growth ([1]; 6.25 mg/l) was “++” and the Growth ([1]; 12.5 mg/l) was “+++”. The Growth ([1]; 25 mg/l) was “+++”, the Growth ([1]; 50 mg/l) was “+++” and the Growth ([1]; 100 mg/l) was “+++”. The Growth ([2]; 3.125 mg/ml (so in the source)) was “+”, the Growth ([2]; 6.25 mg/ml (so in the source)) was “+” and the Growth ([2]; 12.5 mg/ml (so in the source)) was “++”. For the same compound, the Growth ([2]; 25 mg/ml (so in the source)) was “+++”, the Growth ([2]; 50 mg/ml (so in the source)) was “+++” and the Growth ([2]; 100 mg/ml (so in the source)) was “+++”. For the same compound, the Growth ([3]; 3.125 mg/ml (so in the source)) was “+++”, the Growth ([3]; 6.25 mg/ml (so in the source)) was “+++” and the Growth ([3]; 12.5 mg/ml (so in the source)) was “+++”. The Growth ([3]; 25 mg/ml (so in the source)) was “+++”, the Growth ([3]; 50 mg/ml (so in the source)) was “+++” and the Growth ([3]; 100 mg/ml (so in the source)) was “+++”. For the same compound, the Growth ([4]; 3.125 mg/l) was “+++”, the Growth ([4]; 6.25 mg/l) was “+++” and the Growth ([4]; 12.5 mg/l) was “+++”. The Growth ([4]; 25 mg/l) was “+++”, the Growth ([4]; 50 mg/l) was “+++” and the Growth ([4]; 100 mg/l) was “+++”. For the same compound, the Growth ([5]; 3.125 mg/l) was “++”, the Growth ([5]; 6.25 mg/l) was “+++” and the Growth ([5]; 12.5 mg/l) was “+++”. For the same compound, the Growth ([5]; 25 mg/l) was “+++”, the Growth ([5]; 50 mg/l) was “+++” and the Growth ([5]; 100 mg/l) was “+++”.
With `O=[Se](=O)(O)O` [Sodium selenate, sodium selenate] the Growth ([21]; 62.5 mg/l) was “+++”, the Growth ([21]; 125 mg/l) was “++” and the Growth ([21]; 250 mg/l) was “±”. For the same compound, the Growth ([21]; 1000 mg/l) was “-”, the Growth ([21]; 2000 mg/l) was “-” and the Growth ([22]; 62.5 mg/l) was “++”. For the same compound, the Growth ([22]; 125 mg/l) was “++”, the Growth ([22]; 250 mg/l) was “++” and the Growth ([22]; 500 mg/l) was “++”. For the same compound, the Growth ([22]; 1000 mg/l) was “++”, the Growth ([22]; 2000 mg/l) was “+” and the MIC [23] was at least 250 µg/mL.
